Data taken from PMC11270968, “Antiplasmodial potential of isolated xanthones from Mesua ferrea Linn. roots: an in vitro and in silico molecular docking and pharmacokinetics study” (BMC Complementary Medicine and Therapies, 2024).
≈ marks a conversion by molar mass, not a printed value. Entries after “also recorded” stand apart in the source; their conditions may differ. Where two headings read alike, the source gives them in different places.

Experiments:
P. falciparum D6 = details: cited from earlier work
[1] = tested on: P. falciparum FcB1/Colombia; design: method as in PMID 15474559; details: chloroquine-resistant P. falciparum FcB1/Colombia; cited from earlier work
heme polymerization = tested on: heme polymerization; design: method as in PMID 9199506; details: cited from earlier work
P. falciparum K1 strain = assay: in vitro antiplasmodial activity, parasite lactate dehydrogenase (pLDH) assay; format: cell-based, Plasmodium falciparum; details: for IC50: Plasmodium falciparum, read-out: IC50 ± SD P. falciparum K1; for antiplasmodial activity classification of pure compounds: P. falciparum K1, class by IC50; for Selectivity index (SI): CC50 Vero cells / IC50 P. falciparum K1
PfLDH = details: cited from earlier work
[2] = in vitro cytotoxicity, MTT assay; format: cell-based; details: African green monkey, pure compounds and doxorubicin, 48 h, mean ± SD of three determinations; for CC50 at 48 h: Vero cells
Description: (§1) The purpose of this study was to determine the cytotoxicity of crude extracts and pure compounds isolated from M. ferrea roots on Vero cells. The MTT assay was performed according to an established protocol. Briefly, Vero cells were cultured in Dulbecco’s Modified Eagle Medium (Gibco, USA) supplemented with 10% fetal bovine serum (FBS) (Sigma-Aldrich, New Delhi, India). Vero cell suspensions were seeded onto 96-well culture plates at a density of 1 × 10^4 cells per well. The seeded culture plates were incubated at 37 °C in a 5% CO2 atmosphere for 24 h to facilitate cell attachment. Subsequently, the cultured cells were exposed to the test extracts and pure compounds in triplicate for each concentration. Doxorubicin (Sigma-Aldrich, India) was used as a positive control, whereas DMSO served as a negative control. All extracts and pure compounds were dissolved in DMSO and added to the medium at a final concentration of 0.5% DMSO. Plates containing the test samples were incubated at 37 °C in a 5% CO2 atmosphere for 48 h. Following incubation, the cell culture supernatant was discarded, and 50 µL of MTT solution (5 mg/mL) (Thermo Fisher Scientific, Oregon, USA) was added to each well. The test plates were then incubated at 37 °C in a 5% CO2 atmosphere for 2 h. Subsequently, the supernatant was discarded, and 100 µL/well of DMSO was added to induce cell lysis and dissolve the formazan crystals. To estimate the reactions, absorbance was measured at 560 nm in a microplate reader, and the background absorbance at 670 nm was subtracted.

Vero cells = assay: in vitro cytotoxicity, MTT assay; format: cell-based; details: Vero cells, toxic when CC50 < 100 µM
Description: as §1

P. falciparum 3D7 = tested on: P. falciparum 3D7; design: method as in PMID 37029625; details: chloroquine-sensitive P. falciparum 3D7; read-out: IC50 antiplasmodial activity; cited from earlier work
[3] = K1, pure compounds and reference drugs, 72 h, mean ± SD of three determinations
[4] = ratio of IC50 against P. falciparum K1

## O=c1c2cccc(O)c2oc2cc(O)cc(O)c12 [1,3,5-trihydroxyxanthone]
P. falciparum D6; P. falciparum D6, read-out: IC50 antiplasmodial activity
  IC50: > 60 µM
[1]
  IC50 antiplasmodial activity: 24.7 mg/L (≈ 101 µM)

## O=c1c2ccc(O)c(O)c2oc2c(O)c(O)c(O)cc12 [2,3,4,5,6-pentahydroxyxanthone]
Heme polymerization; read-out: IC50 in vitro heme polymerization
  IC50: 1.2 µM
P. falciparum D6; chloroquine-sensitive P. falciparum D6, read-out: IC50 in vitro antiplasmodial activity
  IC50: 0.4 µM

## COc1cc2c(=O)c3ccc(OC)c(OC)c3oc2c(OC)c1OC [2,3,4,5,6-pentamethoxyxanthone]
Heme polymerization
  heme polymerization inhibition: no in vitro antiplasmodial activity or heme polymerization
P. falciparum D6; same study as pentahydroxyxanthone
  in vitro antiplasmodial activity: no in vitro antiplasmodial activity

## C[C@H]1[C@H](OC(=O)CCC(=O)O)O[C@@H]2O[C@@]3(C)CC[C@H]4[C@H](C)CC[C@@H]1[C@@]24OO3 [Artesunate, artesunate, reference compound]
P. falciparum K1 strain; [3]
  IC50: 0.003 µM

## CCN(CC)CCCC(C)Nc1ccnc2cc(Cl)ccc12 (centres unmarked) [Chloroquine, chloroquine, reference compound]
P. falciparum K1 strain; K1, 72 h
  IC50: 0.32 µM
PfLDH
  PfLDH inhibition: weak inhibitor

## COc1ccc2oc3cccc(O)c3c(=O)c2c1 [Compound 1, 1-hydroxy-7-methoxyxanthone]
P. falciparum K1 strain
  antiplasmodial activity classification of pure compounds: inactive
P. falciparum K1 strain; [3]
  IC50: 346 ± 3.51 µM
[2]
  CC50 at 48 h: 195.8 ± 1.68 µM
Vero cells
  cytotoxicity classification of pure compounds: non-toxic

## COc1cccc2c(=O)c3c(O)cccc3oc12 [Compound 2, 1-hydroxy-5-methoxyxanthone]
P. falciparum K1 strain
  antiplasmodial activity classification of pure compounds: low (low activity (IC50 100−200 µM))
P. falciparum K1 strain; [3]
  IC50: 164 ± 1.71 µM
[2]
  CC50 at 48 h: 62 ± 1.18 µM
Vero cells
  cytotoxicity classification of pure compounds: toxic (pure compounds are considered toxic to cells when the CC50 value is less than 100 µM)

## O=c1c2ccc(O)cc2oc2cccc(O)c12 [Compound 3, 1,6-dihydroxyxanthone]
P. falciparum K1 strain
  antiplasmodial activity classification of pure compounds: inactive
P. falciparum K1 strain; [3]
  IC50: 226.1 ± 1.32 µM
[2]; read-out: CC50 ± SD Vero cells
  CC50: 182.8 ± 1.62 µM
Vero cells
  cytotoxicity classification of pure compounds: non-toxic

## O=c1c2cccc(O)c2oc2cccc(O)c12 [Compound 4, 1,5-dihydroxyxanthone]
P. falciparum K1 strain
  Selectivity index (SI): 3.89
  antiplasmodial activity classification of pure compounds: low (low activity (IC50 100−200 µM))
P. falciparum K1 strain; [3]
  IC50: 107 ± 4.41 µM
[2]
  CC50 at 48 h: 416.7 ± 1.98 µM
Vero cells
  cytotoxicity classification of pure compounds: non-toxic

## CC1(C)C=Cc2cc3c(=O)c4c(O)cccc4oc3c(O)c2O1 [Compound 5, rheediachromenoxanthone]
P. falciparum K1 strain
  antiplasmodial activity classification of pure compounds: good (good activity (IC50 1−20 µM))
P. falciparum K1 strain; [3]
  IC50: 19.9 ± 0.72 µM
P. falciparum K1 strain; [4]
  fold less potent than artesunate: ~6,643.3 fold
  fold less potent than chloroquine: approximately 62.3 fold
  times more potent than 2,5-dihydroxy-1-methoxyxanthone (7): approximately 2.3 times
[2]
  CC50 at 48 h: 112 ± 1.54 µM
Vero cells
  cytotoxicity classification of pure compounds: no toxicity; also recorded: non-toxic
Vero cells; listed as Rheediachromenoxanthone
  cytotoxicity classification of pure compounds: non-toxicity

## COc1cc(O)c2c(=O)c3cccc(O)c3oc2c1 [Compound 6, 1,5-dihydroxy-3-methoxyxanthone]
P. falciparum K1 strain
  antiplasmodial activity classification of pure compounds: low (low activity (IC50 100−200 µM))
P. falciparum K1 strain; [3]
  IC50: 198 ± 2.43 µM
[2]
  CC50 at 48 h: 210.2 ± 1.74 µM
Vero cells
  cytotoxicity classification of pure compounds: non-toxic

## COc1c(O)ccc2oc3c(O)cccc3c(=O)c12 [Compound 7, 2,5-dihydroxy-1-methoxyxanthone]
P. falciparum K1 strain
  Selectivity index (SI): 12.70
  antiplasmodial activity classification of pure compounds: moderate (moderate activity (IC50 20−100 µM))
P. falciparum K1 strain; [3]
  IC50: 46.3 ± 1.65 µM
[2]
  CC50 at 48 h: 587.9 ± 2.18 µM
Vero cells
  cytotoxicity classification of pure compounds: non-toxic

## COc1cccc2c1C(=O)c1c(O)c3c(c(O)c1C2=O)C[C@@](O)(C(=O)CO)C[C@@H]3O[C@H]1C[C@H](N)[C@H](O)[C@H](C)O1 [Doxorubicin, reference compound]
[2]
  CC50 at 48 h: 3.35 ± 0.28 µM

## C=CC(C)(C)c1c2c(c(O)c3c(=O)c4cccc(O)c4oc13)C=CC(C)(C)O2 [caloxanthone C]
[1]
  IC50 antiplasmodial activity: 1.3 mg/L (≈ 3.44 µM)

## CC1(C)C=Cc2c(cc(O)c3c(=O)c4ccc(O)c(O)c4oc23)O1 [isojacareubin]
P. falciparum 3D7
  IC50: 11.5 µM

## C=CC(C)(C)c1c2c(c(O)c3c(=O)c4ccc(O)c(O)c4oc13)C=CC(C)(C)O2 [macluraxanthone]
P. falciparum 3D7
  IC50: 4.28 µM
